Results reported in patent US4487927A, “3-Phosphonium and 3-phosphoranylidenecephems” (Fujisawa Pharmaceutical Co., Ltd., priority 1979, dated 1984).
In brackets after ≈: the same amount, converted by molar mass.

Key:
[1] = system: Batilus subtilis ATCC 6633; test: In vitro antimicrobial activity, two-fold agar-plate dilution method (MIC); format: cell-based; conditions: 37° C. for 20 hours, HI-agar; for MIC: 20 h, read-out: minimal inhibitory concentration (MIC)
Description: (§1) In vitro Antimicrobial activity was determined by the two-fold agar-plate dilution method as described below.
(§2) One loopful of an overnight culture of each test strain in Tripticase-soy broth (approximately 10^8 viable cells per ml) was streaked on heart infusion agar (HI-agar containing graded concentrations of antimicrobial agents, and the minimal inhibitory concentration (MIC) was expressed in term of μg/ml after incubation at 37° C. for 20 hours.

[2] = system: Staphylococcus aureus 209P JC-1; test: as above; format: cell-based; conditions: 37° C. for 20 hours, HI-agar; for MIC: Staphylococcus aureus, 209P, 20 h, read-out: minimal inhibitory concentration (MIC)
Description: as §1, §2

[3] = Determination of serum levels after oral administration in rats (disc method); format: in vivo, SD strain; conditions: rat, 100 mg/kg orally, fasted male SD rats, read-out: Mean Serum Level
Description: (2) Test 2: Determination of serum levels after oral administration of anti-microbial agents in rats
6 weeks old male rats, SD strain, each weighing 160-230 g.
The test compound A (100 mg/kg) was given orally to rats which had been fasted overnight. At specified intervals, the rats were anethetized with chloroform and blood samples were collected from the heart. The anti-microbial levels in each serum sample were determined by the disc method using standard solutions prepared with serum from rats.

[4] = system: Escherichia coli 29; test: Protecting effect in experimental mice infection; format: in vivo, ICR strain; Escherichia coli; conditions: Escherichia coli 29 injected intraperitoneally; oral dose one hour after injection; 4 days observation; probit method
Text: (3) Test 3: Protecting effect in experimental mice infection 4-weeks old male mice, ICR strain, each weighing 20.0±1.5 g. 1.3×10^4 cells of pathogenic microorganisms, suspended in 2.5% mucin, were intraperitoneally injected. One hour after the injection, Compound A was orally given.

[5] = system: Proteus mirabilis 18; test: In vitro antimicrobial activity, two-fold agar-plate dilution method (MIC); format: cell-based; conditions: 37° C. for 20 hours, HI-agar, read-out: minimal inhibitory concentration (MIC)
Description: as §1, §2

[6] = system: Proteus mirabilis 1; test: as above; format: cell-based; conditions: 37° C. for 20 hours, HI-agar, read-out: minimal inhibitory concentration (MIC)
Description: as §1, §2

[7] = system: Proteus vulgaris 2; test: as above; format: cell-based; conditions: 37° C. for 20 hours, HI-agar, read-out: minimal inhibitory concentration (MIC)
Description: as §1, §2

SMILES | MIC [1] | MIC [2] | MIC [5] | MIC [6] | further results
C=CC1=C(C(=O)O)N2C(=O)C(NC(=O)[C@H](N)c3cccc(NS(C)(=O)=O)c3)[C@H]2SC1 (stereo partly drawn) [Compound A, 7-[2-(3-Methanesulfonamidophenyl)-D-glycinamido]-3-vinyl-3-cephem-4-carboxylic acid] | 0.1 mg/L (≈ 0.221 µM) | 1.56 mg/L (≈ 3.45 µM) | – | – | concentration at 1 h ([3]; 1 hour): 38.5 µg/mL; concentration at 2 h ([3]; 2 hours): 34.9 µg/mL; concentration at 4 h ([3]; 4 hours): 31 µg/mL; concentration at 6 h ([3]; 6 hours): 28.8 µg/mL; ED50 value [4]: 0.480 mg/mouse
C=CC1=C(C(=O)O)N2C(=O)C(NC(=O)Cc3csc(N)n3)[C@H]2SC1 (stereo partly shown) [Compound B, 7-[2-(2-Aminothiazol-4-yl)acetamido]-3-vinyl-3-cephem-4-carboxylic acid] | – | 1.56 mg/L (≈ 4.26 µM) | – | – | minimal inhibitory concentration (MIC) [1]: 1.56 mg/L (≈ 4.26 µM)
C=CC1=C(C(=O)O)N2C(=O)C(NC(=O)C(O)c3csc(N)n3)[C@H]2SC1 (stereo partly shown) [Compound C, 7-[2-(2-Aminothiazol-4-yl)glycolamido]-3-vinyl-3-cephem-4-carboxylic acid] | 0.78 mg/L (≈ 2.04 µM) | 1.56 mg/L (≈ 4.08 µM) | – | – | –
C=CC1=C(C(=O)O)N2C(=O)C(NC(=O)Cc3cnc(NC=O)s3)[C@H]2SC1 (stereo partly shown) [Compound D, 7-[2-(2-Formamidothiazol-5-yl)acetamido]-3-vinyl-3-cephem-4-carboxylic aci d] | 0.2 mg/L (≈ 0.507 µM) | 0.39 mg/L (≈ 0.989 µM) | – | – | –
C=CC1=C(C(=O)O)N2C(=O)C(NC(=O)Cc3cnc(N)s3)[C@H]2SC1 (stereo partly shown) [Compound E, 7-[2-(2-Aminothiazol-5-yl)acetamido]-3-vinyl-3-cephem-4-carboxylic acid] | 0.05 mg/L (≈ 0.136 µM) | 0.78 mg/L (≈ 2.13 µM) | – | – | –
C=CC1=C(C(=O)O)N2C(=O)C(NC(=O)Cc3cnc(NS(C)(=O)=O)s3)[C@H]2SC1 (stereo partly shown) [Compound F, 7-[2-(2-Methanesulfonamidothiazol-5-yl)acetamido]-3-vinyl-3-cephem-4-carboxylic acid] | 0.39 mg/L (≈ 0.877 µM) | 1.56 mg/L (≈ 3.51 µM) | – | – | –
Br.C=CC1=C(C(=O)O)N2C(=O)C(NC(=O)Cc3csc(NC(=N)N)n3)[C@H]2SC1 (stereo partly shown) [Compound G, 7-[2-(2-Guanidinothiazol-4-yl)acetamido]-3-vinyl-3-cephem-4-carboxylic aci d hydrobromide] | 0.1 mg/L | 0.39 mg/L | – | – | –
C=CC1=C(C(=O)O)N2C(=O)C(NC(=O)Cc3csc(N)n3)[C@H]2SC1 (stereo partly shown) [Compound H, 7-[2-(2-Aminothiazol-4-yl)acetamido]-3-vinyl-3-cephem-4-carboxylic acid] | – | – | – | – | minimal inhibitory concentration (MIC) [1]: 0.39 mg/L (≈ 1.06 µM); minimal inhibitory concentration (MIC) [2]: 0.78 mg/L (≈ 2.13 µM)
C=CC1=C(C(=O)O)N2C(=O)C(NC(=O)/C(=N\OC)c3csc(N)n3)C2SC1 (stereo not drawn) [Compound I, 7-[2-(2-Aminothiazol-4-yl)-2-methoxyiminoacetamido]-3-vinyl-3-cephem-4-carboxylic acid (syn isomer)] | – | – | < 0.025 mg/L | 0.05 mg/L (≈ 0.122 µM) | –
C=CC1=C(C(=O)O)N2C(=O)C(NC(=O)/C(=N\OCC)c3csc(N)n3)C2SC1 (stereo not drawn) [Compound J, 7-[2-(2-Aminothiazol-4-yl)-2-ethoxyiminoacetamido]-3-vinyl-3-cephem-4-carboxylic acid (syn isomer)] | 0.78 mg/L (≈ 1.84 µM) | 1.56 mg/L (≈ 3.68 µM) | – | – | –
C=CC1=C(C(=O)O)N2C(=O)C(NC(=O)/C(=N\OCCCCCC)c3csc(N)n3)C2SC1 (stereo not drawn) [Compound K, 7-[2-(2-Aminothiazol-4-yl)-2-hexyloxyiminoacetamido]-3-vinyl-3-cephem-4-carboxylic acid (syn isomer)] | 0.78 mg/L (≈ 1.63 µM) | 1.56 mg/L (≈ 3.25 µM) | – | – | –
C=CC1=C(C(=O)O)N2C(=O)C(NC(=O)/C(=N\OCC(=O)OC[C@H](N)C(=O)O)c3csc(N)n3)C2SC1 (stereo partly drawn) [Compound L, 7-[2-(2-Aminothiazol-4-yl)-2-(L-2-amino-2-carboxyethoxycarbonylmethoxyimino)acetamido]-3-vinyl-3-cephem-4-carboxylic acid (syn isomer)] | – | – | 0.05 mg/L (≈ 0.0925 µM) | 0.05 mg/L (≈ 0.0925 µM) | –
C=CC1=C(C(=O)O)N2C(=O)C(NC(=O)/C(=N\OCC(=O)O)c3csc(N)n3)C2SC1 (stereo not drawn) [Compound M, 7-[2-(2-Aminothiazol-4-yl)-2-carboxymethoxyiminoacetamido]-3-vinyl-3-cephem-4-carboxylic acid (syn isomer)] | – | – | < 0.025 mg/L | < 0.025 mg/L | –
C=CC1=C(C(=O)O)N2C(=O)C(NC(=O)/C(=N\OCC(=O)O)c3nc(N)sc3Cl)C2SC1 (stereo not drawn) [Compound N, 7-[2-(2-Amino-5-chlorothiazol-4-yl)-2-carboxymethoxyiminoacetamido]-3-vinyl-3-cephem-4-carboxylic acid (syn isomer)] | – | – | 0.05 mg/L (≈ 0.102 µM) | 0.2 mg/L (≈ 0.41 µM) | MIC [7]: 0.05 mg/L (≈ 0.102 µM)
C=CC1=C(C(=O)O)N2C(=O)C(NC(=O)/C(=N\OC/C=C/C(=O)O)c3csc(N)n3)C2SC1 (stereo not drawn) [Compound O, 7-[2-(2-Aminothiazol-4-yl)-2-(trans-3-carboxyallyloxyimino)acetamido]-3-vinyl-3-cephem-4-carboxylic acid (syn isomer)] | – | – | 0.1 mg/L (≈ 0.209 µM) | 0.1 mg/L (≈ 0.209 µM) | MIC [7]: < 0.025 mg/L
C=CC1=C(C(=O)O)N2C(=O)C(NC(=O)/C(=N\OCCCC(=O)O)c3csc(N)n3)C2SC1 (stereo not drawn) [Compound P, 7-[2-(2-Aminothiazol-4-yl)-2-(3-carboxypropoxyimino)acetamido]-3-vinyl-3-cephem-4-carboxylic acid (syn isomer)] | – | – | 0.05 mg/L (≈ 0.104 µM) | 0.1 mg/L (≈ 0.208 µM) | MIC [7]: < 0.025 mg/L
